From patent US8815912B2, “Wound and mucosa antiseptic based on bispyridiniumalkanes” (L'Air Liquide Société Anonyme pour l'Etude et …, priority 2009, dated 2014)

Experiment: Stability of solutions rendered isotonic (290 mOsmol/kg)
Type: physicochemical
Conditions: 0.10% octenidine, dihydrochloride
Excerpt: To investigate the stability, aqueous solutions containing 0.1% by weight of octenidine were in each case rendered isotonic (290 mOsmol/kg).

For `CCCCCCCCN=c1ccn(CCCCCCCCCCn2ccc(=NCCCCCCCC)cc2)cc1.Cl.Cl` [Octenidine, Octenidine dihydrochloride], the Stability (isotonicity adjusted with 0.85% sodium chloride, listed as octenidine) was “not stable”, the Stability (isotonicity adjusted with 2.4% glycerol (99.8% strength)) was “Stable between +4 °C and +40 °C” and the Stability (isotonicity adjusted with 2.4% glycerol (99.8% strength), listed as octenidine) was “stable”. For the same molecule, the Stability (isotonicity adjusted with 99.9% Ringer's solution, listed as octenidine) was “not stable”.
